Experimental data as given in patent US20090053509A1, “Mixed solubility borate preservative” (U.S. Borax Inc., priority 2000, published 2009).

Key:
[1] = tested on: Coniophora puteana (brown rot); test: EN113 decay test of wood composites; assay type: cell-based; conditions: wood composite PF face/pMDI core; preservative loading 0.1% by weight; 12 weeks fungal decay exposure; eight samples
Experimental: Wood composite samples were made having a phenol-formaldehyde (PF) resin face and a diphenylmethanediisocyanate (pMDI) resin core. Some of the samples included a combination of the zinc borate, 2ZnO·3B2O3·3.5H2O, (ZB) and disodium octaborate tetrahydrate (DOT) and others contained ZB alone, while still others contained no wood preservative. The ZB/DOT combination formulations contained 60% ZB by weight and 40% DOT. The preservative compositions were added to the wood composite samples at a loading of 0.1% by weight of the wood composite. The samples were cut to 50 mm×25 mm×20 mm before testing. A total of eight samples from each treatment set were subjected to decay testing.
A total of eight samples from each treatment set were tested according to a standard European decay test protocol known as EN113. The samples were first sealed in plastic bags and gamma irradiated at a level of at a level of 2.0 Mrad using a ^60Co source to ensure sterilization prior to mono-culture decay testing.
Aqueous solutions of 2.0% malt and 2.0% agar were prepared and then autoclaved at 120° C. for 30 minutes. […]
The decay results are shown in Table 1, expressed as average percent weight loss of the wood composite samples after 12 weeks of fungal decay exposure.

[2] = tested on: Formosan subterranean termite (Coptotermes formosanus Shiraki); test: Termite field test of aspen waferboards, Hilo; assay type: in vivo; conditions: 0.88% preservative
Description: The performance of mixed solubility borate preservatives against termites was investigated in a study using aspen waferboards bonded with either 100% pMDI (in both face and core) or with Phenol Formaldehyde (PF) in the face and pMDI in the core. The boards were made with a target loading of 0.88% preservative utilizing the formulations (blends) described in Table 4. The borates were incorporated into the board by mixing the preservative formulations with the aspen wafers in a blender before addition of the adhesive and wax. Composite board specimens were exposed to the Formosan subterranean termite (Coptotermes formosanus Shiraki) at a field test site in Hilo, Hi. The specimens, along with untreated aspen ‘feeder’ stakes, are placed in a horizontal array on hollow core concrete blocks approximately 10 cm thick. In addition to surrounding the test specimens, the untreated feeder stakes are also driven into the ground in an effort to increase the termite pressure on the test specimens. The assembly is then covered with a wooden box to prevent direct contact with rain. This is a severe test format conducted using a very termite susceptible wood species (aspen).
After 3, 9 and 15 months exposure the boards were rated visually on a scale of 0 to 10 . A rating of 10 indicates the sample was in perfect condition, while a 0 rating means the sample was essentially destroyed. Each result consisted of an average rating from the inspection of 10 separate samples (10 replicates).

mold [3] = test: Mold exposure test on aspen OSB, modified ASTM D 3273-94 (Example 2); assay type: cell-based; conditions: for Mold Formation Rating: 4 weeks; for Mold Formation Rating, Average: average over boards and soluble borates
Experimental: The effectiveness of the mixed solubility wood preservatives of this invention against mold growth was tested on samples of aspen oriented strand board (OSB). Two OSB formulations were evaluated. One type was bonded with pMDI resin at a 6% loading. The other type was bonded with a PF resin face and a pMDI resin core. The OSB samples contained either a mixed solubility borate preservative formulation or a low solubility borate alone, or no preservative in the case of the control samples. The low solubility borate in all cases was zinc borate 2:3:3.5. The two different high solubility borates were tested—disodium octaborate tetrahydrate (DOT) and boric oxide (B2O3), also known as anhydrous boric acid (ABA). The weight ratio of low solubility borate to high solubility borate in the mixed solubility samples was either 80/20 or 60/40. Two different target loadings of preservative in the OSB samples were tested—0.18% and 0.88% by weight.
(§1) Mold exposure testing was carried out using a modified version of the ASTM: D 3273-94 procedure. Exposure of the OSB samples to mold was done in an experimental chamber consisting of a 597 mm×311 mm×413 mm plastic container tilted on its side to give a 45° roof angle to prevent condensate dripping on the samples and filled with 2-3 inches of water. The water was heated to 32.5° C. (±1° C.), using a thermostatically controlled heating coil. A 292 mm×394 mm×133 mm plastic bowl was filled to within 3 inches from the top with a mixture of damp potting soil and unsterile soil collected from outdoors to provide an inoculum source for mold. The bowl was floated in the plastic container. The boards were placed on a plastic mesh above the inoculum source. The blocks were inverted at one week intervals. The test ran for a duration of 4 weeks.
After the four week mold exposure, the samples were examined visually and rated for mold formation on a scale of 0 to 4, with 0 representing no mold formation (i.e. complete control) and 4 representing complete coverage or overgrowth of the sample by mold. […] With regard to the ratio of high solubility borate to low solubility borate, the samples containing 40% soluble borate (i.e. 60% zinc borate) provided a significant improvement over the samples containing 0% soluble borate (i.e. 100% zinc borate), on average.

mold [4] = test: Mold exposure test on aspen OSB with water repellant (Example 3); assay type: cell-based; conditions: scale 0-4; for Mold Formation Rating: 4 weeks, OSB pMDI 6%
Experimental: as §1
Another set of mold tests similar to Example 2 was carried out. Test samples consisted of Aspen OSB bonded with pMDI resin at a 6% loading. The OSB samples were treated with a hydrophobic resin 1% EW-58S, manufactured by Borden, which served as a water repellant. The preservative treated OSB samples contained either zinc borate alone or a mixture of zinc borate and DOT, at a 60/40 weight ratio. Target loadings of preservative were 0.05, 0.10 and 0.20% by weight in the OSB samples . The OSB test samples were cut into 76 mm×102 mm panels for use in the mold testing. Mold exposure testing was carried out using essentially the same method described in Example 2, except that the water was heated to 30.5° C. (±1° C.). The relative humidity within the environmental chamber was monitored and maintained at .95 to 99% with an average temperature of 27 to 30° C.
After the four week mold exposure, the samples were examined visually and rated for mold growth on a scale of 0 to 4, as in Example 2.

2ZnO·3B2O3·3.5H2O [ZB only]
Average % Wt. Loss [1]: 15.98% | Termites Ratings ([2]; scale 0 (destroyed) to 10 (perfect), board pMDI, 3 mos. exposure, average of 10 replicates): 10 | Termites Ratings ([2]; scale 0-10, board PF/pMDI, 3 mos. exposure): 10 | Termites Ratings ([2]; scale 0-10, board PF/pMDI, 9 mos. exposure): 9.5 | Termites Ratings ([2]; scale 0-10, board PF/pMDI, 15 mos. exposure): 9.7 | Termites Ratings ([2]; scale 0-10, board pMDI, 9 mos. exposure): 9.8 | Termites Ratings ([2]; scale 0-10, board pMDI, 15 mos. exposure): 9.9 | Mold Formation Rating (mold [3]; scale 0 (no mold) to 4 (complete coverage), target borate loading 0.18 % BAE, board pMDI-6%, measured at Edges): 2.00 | Mold Formation Rating (mold [3]; scale 0-4, target borate loading 0.18 % BAE, board PF-pMDI, measured at Edges): 2.00 | Mold Formation Rating (mold [3]; scale 0-4, target borate loading 0.18 % BAE, board PF-pMDI, measured at Faces): 1.25 | Mold Formation Rating (mold [3]; scale 0-4, target borate loading 0.18 % BAE, board pMDI-6%, measured at Faces): 0.75 | Mold Formation Rating (mold [3]; scale 0-4, target borate loading 0.88 % BAE, board PF-pMDI, measured at Edges): 1.50 | Mold Formation Rating (mold [3]; scale 0-4, target borate loading 0.88 % BAE, board PF-pMDI, measured at Faces): 0.75 | Mold Formation Rating (mold [3]; scale 0-4, target borate loading 0.88 % BAE, board pMDI-6%, measured at Edges): 0.75 | Mold Formation Rating (mold [3]; scale 0-4, target borate loading 0.88 % BAE, board pMDI-6%, measured at Faces): 0.00 | Mold Formation Rating, Average (mold [3]; scale 0-4, 0.18 % BAE, Edges): 2.00 | Mold Formation Rating, Average (mold [3]; scale 0-4, 0.18 % BAE, Faces): 1.00 | Mold Formation Rating, Average (mold [3]; scale 0-4, 0.88 % BAE, Edges): 1.13 | Mold Formation Rating, Average (mold [3]; scale 0-4, 0.88 % BAE, Faces): 0.38 | Mold Formation Rating (mold [4]; target borate loading 0.05 % BAE, Edges): 1.00 | Mold Formation Rating (mold [4]; target borate loading 0.05 % BAE, Faces): 1.00 | Mold Formation Rating (mold [4]; target borate loading 0.10 % BAE, Edges): 3.33 | Mold Formation Rating (mold [4]; target borate loading 0.10 % BAE, Faces): 2.67 | Mold Formation Rating (mold [4]; target borate loading 0.20 % BAE, Edges): 2.33 | Mold Formation Rating (mold [4]; target borate loading 0.20 % BAE, Faces): 1.00 | Mold Formation Rating, Average (mold [4]; average over loadings 0.05-0.20 % BAE, Faces and Edges): 1.89
